Experimental data taken from ChEMBL document CHEMBL3745609, “Discovery of pyrazolopyrimidine phosphodiesterase 10A inhibitors for the treatment of schizophrenia” (Bioorg Med Chem Lett, 2016).
In brackets after ≈: the same amount, converted by molar mass. Blank lines part the entries; values can stand above or below the compound they belong to. Activity calls are given as the source filed them. No cut-off for these calls is given here.

Experiments:
[1] = Plasma protein binding in rat; type: ADME, cell-free; settings: read-out: PPB (converted)
Cytochrome P450 3A4 [2] = target: T1, Cytochrome P450 3A4 (Homo sapiens, UniProt P08684); experiment: Inhibition of CYP3A4 (unknown origin); type: ADME
T1 sequence (P08684 whole entry): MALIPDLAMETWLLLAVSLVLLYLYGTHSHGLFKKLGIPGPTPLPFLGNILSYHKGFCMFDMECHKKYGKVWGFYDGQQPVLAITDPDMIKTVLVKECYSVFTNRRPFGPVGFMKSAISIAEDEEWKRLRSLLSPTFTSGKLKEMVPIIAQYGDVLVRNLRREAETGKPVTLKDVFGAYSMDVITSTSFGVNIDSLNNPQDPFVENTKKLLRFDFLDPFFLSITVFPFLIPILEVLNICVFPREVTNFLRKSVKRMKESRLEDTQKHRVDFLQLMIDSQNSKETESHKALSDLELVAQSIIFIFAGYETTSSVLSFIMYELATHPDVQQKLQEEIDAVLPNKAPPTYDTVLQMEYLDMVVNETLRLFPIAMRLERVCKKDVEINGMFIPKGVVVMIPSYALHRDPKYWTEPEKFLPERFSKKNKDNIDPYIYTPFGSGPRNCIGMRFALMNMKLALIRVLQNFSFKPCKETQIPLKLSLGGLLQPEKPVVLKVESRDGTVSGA

[3] = Aqueous solubility of the compound at pH 7; type: physicochemical
[4] = target: T2, Nuclear receptor subfamily 1 group I member 2 (Homo sapiens, UniProt O75469); experiment: Activation of PXR (unknown origin); type: ADME
T2 sequence (O75469 whole entry): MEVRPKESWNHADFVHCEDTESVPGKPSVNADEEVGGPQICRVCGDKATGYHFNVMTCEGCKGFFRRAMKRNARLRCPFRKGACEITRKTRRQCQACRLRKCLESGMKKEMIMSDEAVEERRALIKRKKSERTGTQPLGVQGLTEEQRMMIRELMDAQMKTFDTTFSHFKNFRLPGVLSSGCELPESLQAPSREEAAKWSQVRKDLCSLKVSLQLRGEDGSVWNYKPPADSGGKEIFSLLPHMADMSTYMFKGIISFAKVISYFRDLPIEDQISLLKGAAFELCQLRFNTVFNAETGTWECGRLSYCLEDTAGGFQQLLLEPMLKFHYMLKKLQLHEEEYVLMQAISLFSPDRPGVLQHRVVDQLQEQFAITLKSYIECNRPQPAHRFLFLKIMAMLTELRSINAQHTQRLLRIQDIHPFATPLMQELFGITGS

[5] = target: Voltage-gated inwardly rectifying potassium channel KCNH2 (Homo sapiens, UniProt Q12809); experiment: Inhibition of MK-499 binding to human ERG
Sequence of Voltage-gated inwardly rectifying potassium channel KCNH2 (Q12809 whole entry): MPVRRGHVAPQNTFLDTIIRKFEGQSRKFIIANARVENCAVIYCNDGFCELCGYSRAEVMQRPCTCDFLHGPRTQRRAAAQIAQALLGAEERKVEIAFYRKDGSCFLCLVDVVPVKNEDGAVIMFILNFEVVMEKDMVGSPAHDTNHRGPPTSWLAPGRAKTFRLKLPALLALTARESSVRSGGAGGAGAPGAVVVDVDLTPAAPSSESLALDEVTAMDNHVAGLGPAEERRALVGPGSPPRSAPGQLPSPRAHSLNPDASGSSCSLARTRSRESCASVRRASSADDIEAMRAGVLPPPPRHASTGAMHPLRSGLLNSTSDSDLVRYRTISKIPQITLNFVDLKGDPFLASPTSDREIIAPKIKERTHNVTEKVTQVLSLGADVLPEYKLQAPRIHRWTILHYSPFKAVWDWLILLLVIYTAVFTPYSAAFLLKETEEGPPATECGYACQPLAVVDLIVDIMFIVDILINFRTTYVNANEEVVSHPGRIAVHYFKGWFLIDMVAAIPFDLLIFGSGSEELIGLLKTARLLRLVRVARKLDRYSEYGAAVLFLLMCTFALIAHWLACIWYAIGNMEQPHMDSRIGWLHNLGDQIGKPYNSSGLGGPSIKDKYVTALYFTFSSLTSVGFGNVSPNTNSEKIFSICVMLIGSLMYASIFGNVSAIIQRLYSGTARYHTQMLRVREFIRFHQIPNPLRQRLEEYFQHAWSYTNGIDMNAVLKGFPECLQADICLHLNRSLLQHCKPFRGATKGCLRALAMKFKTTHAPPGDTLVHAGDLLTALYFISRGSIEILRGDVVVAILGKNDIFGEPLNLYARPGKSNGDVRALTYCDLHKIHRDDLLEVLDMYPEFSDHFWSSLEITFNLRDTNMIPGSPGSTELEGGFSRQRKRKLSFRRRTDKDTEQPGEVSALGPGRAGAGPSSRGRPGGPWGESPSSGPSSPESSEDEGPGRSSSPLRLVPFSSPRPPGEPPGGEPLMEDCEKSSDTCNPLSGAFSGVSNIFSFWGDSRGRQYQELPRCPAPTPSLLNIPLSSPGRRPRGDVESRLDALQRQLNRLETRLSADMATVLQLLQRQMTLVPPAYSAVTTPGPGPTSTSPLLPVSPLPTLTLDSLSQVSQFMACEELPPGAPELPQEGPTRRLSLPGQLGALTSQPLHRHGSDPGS

[6] = target: cAMP and cAMP-inhibited cGMP 3',5'-cyclic phosphodiesterase 10A (Homo sapiens, UniProt Q9Y233); experiment: Inhibition of PDE10A (unknown origin) by IMAP assay
Sequence of cAMP and cAMP-inhibited cGMP 3',5'-cyclic phosphodiesterase 10A (Q9Y233 whole entry): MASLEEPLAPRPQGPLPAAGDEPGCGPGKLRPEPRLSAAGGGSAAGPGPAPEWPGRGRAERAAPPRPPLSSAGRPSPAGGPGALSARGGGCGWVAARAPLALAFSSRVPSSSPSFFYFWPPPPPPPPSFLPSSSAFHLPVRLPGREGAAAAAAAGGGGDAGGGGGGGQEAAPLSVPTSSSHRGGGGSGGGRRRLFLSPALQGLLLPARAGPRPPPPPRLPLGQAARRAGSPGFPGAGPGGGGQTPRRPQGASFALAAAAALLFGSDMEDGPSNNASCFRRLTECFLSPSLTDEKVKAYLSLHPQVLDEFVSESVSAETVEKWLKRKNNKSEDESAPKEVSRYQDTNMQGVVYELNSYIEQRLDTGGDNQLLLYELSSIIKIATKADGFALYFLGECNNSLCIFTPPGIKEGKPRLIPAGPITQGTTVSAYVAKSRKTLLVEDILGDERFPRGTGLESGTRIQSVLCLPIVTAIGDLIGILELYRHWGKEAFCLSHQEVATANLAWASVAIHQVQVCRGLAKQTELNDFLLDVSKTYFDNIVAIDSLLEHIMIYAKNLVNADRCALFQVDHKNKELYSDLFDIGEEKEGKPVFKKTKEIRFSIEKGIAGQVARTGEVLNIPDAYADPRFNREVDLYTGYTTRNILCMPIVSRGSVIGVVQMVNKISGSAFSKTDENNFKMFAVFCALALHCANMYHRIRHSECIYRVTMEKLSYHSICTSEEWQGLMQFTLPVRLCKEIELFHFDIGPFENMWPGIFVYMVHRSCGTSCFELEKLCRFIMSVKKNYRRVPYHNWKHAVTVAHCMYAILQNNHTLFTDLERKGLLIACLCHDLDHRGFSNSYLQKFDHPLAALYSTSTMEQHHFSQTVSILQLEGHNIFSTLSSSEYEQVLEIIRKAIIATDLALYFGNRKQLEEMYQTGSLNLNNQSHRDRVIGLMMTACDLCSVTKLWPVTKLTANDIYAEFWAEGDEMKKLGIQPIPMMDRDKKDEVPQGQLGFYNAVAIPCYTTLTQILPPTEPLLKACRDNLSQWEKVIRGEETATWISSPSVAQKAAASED

Cytochrome P450 2D6 = Cytochrome P450 2D6 (Homo sapiens, UniProt P10635); experiment: Inhibition of CYP2D6 (unknown origin); type: ADME
Sequence of Cytochrome P450 2D6 (P10635 whole entry): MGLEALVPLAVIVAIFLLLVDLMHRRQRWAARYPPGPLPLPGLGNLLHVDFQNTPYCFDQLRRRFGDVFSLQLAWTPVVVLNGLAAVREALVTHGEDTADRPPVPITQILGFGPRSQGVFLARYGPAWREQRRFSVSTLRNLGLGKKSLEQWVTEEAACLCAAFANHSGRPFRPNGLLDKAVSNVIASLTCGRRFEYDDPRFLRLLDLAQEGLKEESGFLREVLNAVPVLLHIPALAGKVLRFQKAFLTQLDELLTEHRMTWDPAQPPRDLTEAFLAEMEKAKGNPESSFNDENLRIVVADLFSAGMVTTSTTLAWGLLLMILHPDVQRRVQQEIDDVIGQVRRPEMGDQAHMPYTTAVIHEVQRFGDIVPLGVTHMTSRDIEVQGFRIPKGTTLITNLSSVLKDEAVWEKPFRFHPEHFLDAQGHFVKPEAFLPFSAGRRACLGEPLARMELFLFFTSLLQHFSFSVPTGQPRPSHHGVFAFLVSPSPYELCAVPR

[7] = Plasma protein binding in iv dosed Wistar Hanover rat; type: ADME, organism-based; settings: read-out: PPB (converted)
[8] = Clearance in rat; type: ADME, organism-based; settings: in vivo
Cytochrome P450 2C9 = Cytochrome P450 2C9 (Homo sapiens, UniProt P11712); experiment: Inhibition of CYP2C9 (unknown origin); type: ADME
Sequence of Cytochrome P450 2C9 (P11712 whole entry): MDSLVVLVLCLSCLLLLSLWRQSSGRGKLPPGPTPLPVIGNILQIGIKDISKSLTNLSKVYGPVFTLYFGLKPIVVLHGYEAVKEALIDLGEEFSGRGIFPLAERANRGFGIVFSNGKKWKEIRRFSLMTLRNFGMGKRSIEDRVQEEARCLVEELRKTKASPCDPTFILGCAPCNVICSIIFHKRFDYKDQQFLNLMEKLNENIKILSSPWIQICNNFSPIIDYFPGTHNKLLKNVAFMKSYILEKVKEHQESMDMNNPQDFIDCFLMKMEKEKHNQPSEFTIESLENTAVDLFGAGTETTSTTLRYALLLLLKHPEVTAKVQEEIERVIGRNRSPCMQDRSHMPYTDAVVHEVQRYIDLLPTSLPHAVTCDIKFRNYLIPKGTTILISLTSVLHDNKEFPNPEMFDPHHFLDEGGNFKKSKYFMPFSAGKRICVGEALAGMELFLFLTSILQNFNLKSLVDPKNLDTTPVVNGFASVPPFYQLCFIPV

Homo sapiens = species: Homo sapiens; experiment: Selectivity for PDE10A (unknown origin) over PDE (unknown origin)
[9] = Apparent passive permeability of the compound; type: physicochemical; settings: not told
Rattus norvegicus [10] = experiment: Toxicity in rat up to 250 mg/kg after 7 days; type: organism-based; settings: in vivo, 168 h
[11] = Oral bioavailability in Wistar Hanover rat; type: ADME, organism-based; settings: in vivo
[12] = Terminal half life in iv dosed beagle dog; type: ADME, organism-based, Canis lupus familiaris; settings: in vivo, read-out: beta t1/2 (converted)
[13] = Lipophilicity, log D of the compound at pH 7 by HPLC method; type: physicochemical; settings: buffer
Rattus norvegicus [14] = experiment: Toxicity in rat assessed as induction of catalepsy up to 30 mg/kg, po; type: organism-based; settings: in vivo
Cytochrome P450 3A4 [15] = target: T1, Cytochrome P450 3A4; experiment: Time dependent inhibition of CYP3A4 (unknown origin); type: ADME
[16] = Plasma protein binding in iv dosed beagle dog; type: ADME, organism-based, Canis lupus familiaris; settings: read-out: PPB (converted)
[17] = Terminal half life in iv dosed rhesus monkey; type: ADME, organism-based, Macaca mulatta; settings: in vivo, read-out: beta t1/2 (converted)
Rattus norvegicus [18] = experiment: In vivo inhibition of PDE10A in rat striatum assessed as increase in cGMP level at >3 mg/kg, po after 2 hrs relative to control; type: functional
[19] = Oral bioavailability in beagle dog; type: ADME, organism-based, Canis lupus familiaris; settings: in vivo
P-gp [20] = experiment: Substrate activity at rat P-gp assessed as efflux ratio of permeability across basolateral to apical over apical to basolateral side; type: ADME; settings: not told
[21] = Plasma clearance in iv dosed Wistar Hanover rat; type: ADME, organism-based
[22] = Plasma clearance in iv dosed rhesus monkey; type: ADME, organism-based, Macaca mulatta
Rattus norvegicus [23] = experiment: Anti-psychotic activity in rat assessed as plasma concentration needed to attenuate MK-801-induced hyperlocomotion at 1.5 mg/kg, po; type: functional
Rattus norvegicus [24] = species: Rattus norvegicus; experiment: Toxicity in rat assessed as decrease in total body fat after 7 days; type: organism-based; settings: in vivo, 168 h
[25] = Plasma protein binding in iv dosed rhesus monkey; type: ADME, organism-based, Macaca mulatta; settings: read-out: PPB (converted)
Rattus norvegicus [26] = experiment: Toxicity in rat assessed as influence on circulating prolactin level up to 30 mg/kg, po; type: organism-based; settings: in vivo
Rattus norvegicus [27] = experiment: Cardiotoxicity in iv dosed rat; type: toxicity, organism-based; settings: in vivo
[28] = Oral bioavailability in rhesus monkey; type: ADME, organism-based, Macaca mulatta; settings: in vivo
Rattus norvegicus [29] = experiment: Cognition enhancing activity in rat assessed as increase in episodic like memory up to 1.5 mg/kg, po by novel object recognition assay; type: functional, organism-based
[30] = Inhibition of platelet aggregation factor (unknown origin); set-up: species or system Homo sapiens
Salmonella typhimurium = experiment: Mutagenicity in Salmonella typhimurium up to 5000 ug/plate by 5-strain Ames test; type: toxicity, organism-based; settings: salmonella enterica subsp. enterica serovar typhimurium
Rattus norvegicus [31] = species: Rattus norvegicus; experiment: Anti-psychotic activity in rat assessed as reversal of MK-801-induced prepulse inhibition; type: functional, organism-based
[32] = Plasma protein binding in iv dosed human; type: ADME, organism-based; settings: read-out: PPB (converted)
Rhesus monkey [33] = experiment: In-vivo occupancy at PDE10A in rhesus monkey assessed as inhibition of [11C]MK-8193 binding; type: functional, Macaca mulatta
P-gp [34] = experiment: Substrate activity at human P-gp assessed as efflux ratio of permeability across basolateral to apical over apical to basolateral side; type: ADME; settings: not told
[35] = Plasma clearance in iv dosed beagle dog; type: ADME, organism-based, Canis lupus familiaris
[36] = Terminal half life in iv dosed Wistar Hanover rat; type: ADME, organism-based; settings: in vivo, read-out: beta t1/2 (converted)
Rattus norvegicus [37] = species: Rattus norvegicus; experiment: Toxicity in rat assessed as decrease in body weight gain after 7 days; type: organism-based; settings: in vivo, 168 h
Rattus norvegicus [38] = species: Rattus norvegicus; experiment: Toxicity in rat assessed as lean body mass after 7 days; type: organism-based; settings: in vivo, 168 h
Cavia porcellus = species: Cavia porcellus; experiment: Toxicity in guinea pig; type: organism-based; settings: in vivo
Rhesus monkey [39] = experiment: Potency index, ratio of THPP-1 Occ50 to compound Occ50 for in-vivo occupancy at PDE10A in rhesus monkey assessed as inhibition of [11C]MK-8193 binding; type: functional, Macaca mulatta

Compound: Cc1nc(C)c(CNc2cc(C3CC3)nc3ccnn23)s1
fraction unbound [1]: 0.08
IC50 (Cytochrome P450 3A4 [2]): > 50000 nM
solubility [3]: 196 µM (≈ 58.7 µg/mL)
EC50 [4]: > 250000 nM
INH [5]: 52 µM

Compound: Cc1c(Cl)nc(C2CC2)nc1Cl
solubility [3]: 150 µM (≈ 30.5 µg/mL)

Compound: Cc1nc(C)c(CNc2nc(CCC#Cc3ccccn3)nc(Cl)c2C)s1
Ki [6]: 1.1 nM

Compound: Cc1nc(C)c(CNc2nc(OCC3CC3C3CCCN3C)nc(Cl)c2C)s1 (racemic; form 1)
Ki [6]: 102 nM

Compound: Cn1cc(-c2ccncc2)c(-c2ccc(OCc3ccc4ccccc4n3)cc2)n1 [MARDEPODECT]
solubility [3]: 4 µM (≈ 1.57 µg/mL)

Compound: Cc1nc(C)c(CNc2nc(C3CC3)nc(Cl)c2C)s1
IC50 (Cytochrome P450 2D6): 8200 nM
IC50 (Cytochrome P450 3A4 [2]): 17000 nM
solubility [3]: 2 µM (≈ 0.618 µg/mL)
fraction unbound [7]: 0.015
EC50 [4]: 19000 nM

Compound: Cc1nc(C)c(CNc2cc(Cl)nc3ccnn23)s1
Ki [6]: 58 nM

Compound: Cc1nc(C)c(CNc2nc(OCC3CC3C3CCCN3C)nc(Cl)c2C)s1 (racemic; form 2)
Ki [6]: 54 nM

Compound: Cn1cc(CNc2cc(OC[C@H]3C[C@@H]3c3ccccn3)nc3ccnn23)cn1
Papp [9]: 36 ×10⁻⁶ cm/s
Activity (Rattus norvegicus [10]): Non-toxic
bioavailability [11]: 41%
half-life [12]: 8.7 h
logD [13]: 2
Activity (Rattus norvegicus [14]): Non-toxic
TDI (Cytochrome P450 3A4 [15]): Not Active
fraction unbound [16]: 0.06
half-life [17]: 2.8 h
IC50 (Cytochrome P450 3A4 [2]): > 50000 nM
inhibition (INH) (Rattus norvegicus [18]): >150%
bioavailability [19]: 63%
efflux ratio (P-gp [20]): 0.7
clearance [21]: 21 mL/min/kg
clearance [22]: 8.2 mL/min/kg
Activity (Rattus norvegicus [23]): 130 nM
Activity (Rattus norvegicus [24]): Toxic
fraction unbound [25]: 0.03
Activity (Rattus norvegicus [26]): Non-toxic
Activity (Rattus norvegicus [27]): Non-toxic
bioavailability [28]: 46%
Activity (Rattus norvegicus [29]): Active
IC50 [30]: 2200 nM
Ki [6]: 0.23 nM
Activity (Salmonella typhimurium): Non-toxic
Activity (Rattus norvegicus [31]): Dose-dependent effect
fraction unbound [32]: 0.07
Occ50 (Rhesus monkey [33]): 1.1 µM
efflux ratio (P-gp [34]): 0.6
clearance [35]: 3.9 mL/min/kg
fraction unbound [7]: 0.09
Selectivity ratio (Homo sapiens): > 5800
half-life [36]: 4.9 h
Activity (Rattus norvegicus [37]): Toxic
EC50 [4]: > 25000 nM
Activity (Rattus norvegicus [38]): Toxic
INH [5]: > 60 µM
Activity (Cavia porcellus): Non-toxic
Ratio (Rhesus monkey [39]): 2

Compound: Cc1nc(C)c(CNc2nc(CCCCc3ccccn3)nc(Cl)c2C)s1
Ki [6]: 0.4 nM

Compound: Cc1nc(C)c(CNc2nc(OCCCc3ccc4ccccc4n3)nc(Cl)c2C)s1
clearance [21]: 60 mL/min/kg
EC50 [4]: 2300 nM
INH [5]: 3.8 µM

Compound: Cc1nc(C)c(CNc2nc(NCC(C)(C)Cc3ccccn3)nc(Cl)c2C)s1
Ki [6]: 19.1 nM

Compound: Clc1cc(Cl)n2nccc2n1
solubility [3]: > 500 µM
Ki [6]: 24000 nM

Compound: Cc1nc(C)c(CNc2nc(NCCCc3ccccn3)nc(Cl)c2C)s1
Ki [6]: 4.1 nM

The next lines start with results.

Ki [6]: 0.07 nM
Compound: Cc1nc(C)c(CNc2nc(OC[C@H]3C[C@@H]3c3ccccn3)nc(Cl)c2C)s1 (racemic)

Ki [6]: 3.1 nM
Compound: Cc1nc(C)c(CNc2nc(OCC#Cc3ccccn3)nc(Cl)c2C)s1

Ki [6]: 0.02 nM
Compound: Cc1nc(C)c(CNc2nc(OCC3CC3c3ccc4ncccc4n3)nc(Cl)c2C)s1 (racemic)

Ki [6]: 1.7 nM
Compound: Cc1nc(C)c(CNc2nc(CC[C@H]3C[C@@H]3c3ccccn3)nc(Cl)c2C)s1 (racemic)

Ki [6]: 0.02 nM
Compound: Cc1nc(C)c(CNc2nc(OCC3CC3c3cn(C)cn3)nc(Cl)c2C)s1 (racemic)

Ki [6]: 8.6 nM
Compound: Cc1nc(C)c(CNc2nc(OC[C@@H]3C[C@H]3c3ccccn3)nc(Cl)c2C)s1

Ki [6]: 20.3 nM
Compound: Cc1nc(C)c(CNc2nc(OCC3CC3c3cncn3C)nc(Cl)c2C)s1 (centres undefined)

Ki [6]: 3.6 nM
Compound: Cc1nc(C)c(CNc2nc(OCC3CC3c3ncccn3)nc(Cl)c2C)s1 (racemic)

Ki [6]: 8.3 nM
Compound: Cc1nc(C)c(CNc2nc(OCC3CC3c3ccncc3)nc(Cl)c2C)s1 (centres undefined)

fraction unbound [1]: 0.01
IC50 (Cytochrome P450 3A4 [2]): 3800 nM
solubility [3]: 162 µM (≈ 62.3 µg/mL)
clearance [8]: 29 mL/min/kg
IC50 (Cytochrome P450 2C9): 5200 nM
Selectivity ratio (Homo sapiens): > 2500
EC50 [4]: 5600 nM
Compound: Cc1c(Cl)nc(OC[C@H]2C[C@@H]2c2ccccn2)nc1NCc1cnn(C)c1
INH [5]: > 60 µM

Ki [6]: 15.5 nM
Compound: Cc1nc(C)c(CNc2nc(OC[C@H]3C[C@H]3c3ccccn3)nc(Cl)c2C)s1 (racemic)

Ki [6]: 1.4 nM
Compound: Cc1nc(C)c(CNc2nc(OCC3CC3c3ccc(C#N)cn3)nc(Cl)c2C)s1 (racemic)

Ki [6]: 3.1 nM
Compound: Cc1nc(C)c(CNc2nc(CCCOc3ccccn3)nc(Cl)c2C)s1

Ki [6]: 1.1 nM
Compound: Cc1nc(C)c(CNc2nc(OCCCc3ccccn3)nc(Cl)c2C)s1

Ki [6]: 0.01 nM
Compound: Cc1nc(C)c(CNc2nc(OCC3CC3c3ccc4ccccc4n3)nc(Cl)c2C)s1 (racemic)

Ki [6]: 0.006 nM
Compound: Cc1nc(C)c(CNc2nc(OCC3CC3c3cc4ccccn4n3)nc(Cl)c2C)s1 (racemic)

Ki [6]: 0.01 nM
Compound: Cc1ccnc(C2CC2COc2nc(Cl)c(C)c(NCc3sc(C)nc3C)n2)c1 (centres undefined)

Ki [6]: 0.01 nM
Compound: COc1ccnc(C2CC2COc2nc(Cl)c(C)c(NCc3sc(C)nc3C)n2)c1 (racemic)

Ki [6]: 0.03 nM
Compound: Cc1nc(C)c(CNc2nc(OC[C@H]3C[C@@H]3c3ccccn3)nc(Cl)c2C)s1
